Here are results for five compounds from ChEMBL document CHEMBL1126378, “Substrate selectivity of imidazole-appended dimethyl--cyclodextrin” (Bioorg Med Chem Lett, 1992).

Assay [1] can be described thus: Kinetic parameter Kun for hydrolysis at 25 degrees Celsius using phosphate buffer in reaction with 3-[2-(4-imidazolyl)ethyl] […].
A short description of assay [2]: Kinetic parameter Km for hydrolysis at 25 degrees Celsius using phosphate buffer in reaction with 3-[2-(4-imidazolyl)ethyl] […].
Assay [3] is described as follows: Kinetic parameter kcat for hydrolysis at 25 degrees Celsius using phosphate buffer in reaction with 3-[2-(4-imidazolyl)ethyl] […].
Assay [4] is described as follows: Ratio of kcat and Km was determined.
Assay [5] is described as follows: Ratio of kcat and kun was determined.

Compound `CC(=O)NCC(=O)Oc1ccc([N+](=O)[O-])cc1` yielded a Kun in assay [1] of 0.000562 s⁻¹. The Km in assay [2] was found to be 1470 µM. Moreover, the k cat in assay [3] was determined as 0.0519 s⁻¹. Also, the k cat/Km in assay [4] came out at 35.4 M⁻¹ s⁻¹. In addition, the k cat/Kuncat in assay [5] stood at 92.
For `CC(=O)N[C@@H](Cc1ccccc1)C(=O)Oc1ccc([N+](=O)[O-])cc1`, in that order: 0.000861 s⁻¹, 148 µM, 0.011 s⁻¹, 73.9 M⁻¹ s⁻¹ and 13.
For `CC(C)(C)OC(=O)NCC(=O)Oc1ccc([N+](=O)[O-])cc1` the same measures were 0.000129 s⁻¹, 387 µM, 0.0312 s⁻¹, 80.5 M⁻¹ s⁻¹ and 242.
Take `CC(=O)N[C@H](Cc1ccccc1)C(=O)Oc1ccc([N+](=O)[O-])cc1`: the Kun in assay [1] worked out at 0.000861 s⁻¹. In addition, in assay [2], the Km worked out at 478 µM. In assay [3], the k cat amounted to 0.0238 s⁻¹. The k cat/Km in assay [4] is 49.7 M⁻¹ s⁻¹. The k cat/Kuncat in assay [5] is 28.
For `CC(=O)NC(C)C(=O)Oc1ccc([N+](=O)[O-])cc1` (stereo not given) the same measures were 0.00144 s⁻¹, 1350 µM, 0.0371 s⁻¹, 27.5 M⁻¹ s⁻¹ and 26.

By Km is commonly meant the concentration of substrate that gives half-maximal velocity.
